According to patent US20260217701A1, “SELECTIVE BET INHIBITORS AND USES THEREOF” (Tay Therapeutics Limited, priority 2022, published 2026):
“And” between values parts separate entries of the source, which are not always exact repeats. Equal values may be shown once.

Assays:
[1] = UUO study: serum urea levels; format: in vivo; details: UUO rats
Excerpt: Tables 30A-30B and FIG. 27A depict serum urea levels in sham rats (black bar), UUO rats treated with vehicle (grey bar), and UUO rats treated with Compound A (white bar).

[2] = UUO study: body weight; format: in vivo; details: UUO rats; for Body Weight: 10 mg/kg QD, 10 mg/kg; for Mean + SD of Body Weight: group 3, group mean

With `Cn1cc(-c2ccccc2)c(-c2cn(C)c(=O)c3[nH]c(-c4cnn(C(F)(F)F)c4)cc23)cc1=O` [Compound A, 6-methyl-4-(1-methyl-2-oxo-5-phenyl-1,2-dihydropyridin-4-yl)-2-(1-(trifluoromethyl)-1H-pyrazol-4-yl)-1,6-dihydro-7H-pyrrolo[2,3-c]pyridin-7-one] the “Serum urea levels, difference between experimental groups” value ([1]; 10 mg/kg) was “No significant differences”, the “Serum Urea (Mean + S.D.)” value ([1]; 10 mg/kg QD) was 5.67 ± 0.71 mmol/L and the “Serum Urea” value ([1]; Compound A 10 mg/kg QD, individual animals, 10 mg/kg) was 5.72 mmol/L and 5.03 mmol/L and 5.64 mmol/L and 6.28 mmol/L and 5.22 mmol/L and 4.77 mmol/L and 6.97 mmol/L and 5.71 mmol/L. For the same compound, the “Body Weight” value ([2]; individual animals 1-8, Day 0) was 304 g (2×) and 308 g and 291 g and 306 g and 307 g, the “Body Weight” value ([2]; individual animals 1-8, Day 1) was 290 g and 296 g and 304 g and 281 g and 279 g and 298 g and the “Body Weight” value ([2]; individual animals 1-8, Day 2) was 283 g and 294 g and 297 g and 281 g and 275 g and 290 g. The “Body Weight” value ([2]; individual animals 1-8, Day 3) was 286 g and 292 g and 298 g and 280 g and 276 g and 288 g, the “Body Weight” value ([2]; individual animals 1-8, Day 4) was 285 g and 288 g and 301 g and 277 g and 275 g and 294 g and the “Body Weight” value ([2]; individual animals 1-8, Day 5) was 283 g and 290 g and 300 g and 278 g and 268 g and 285 g. The “Body Weight” value ([2]; individual animals 1-8, Day 6) was 283 g and 290 g (2×) and 297 g and 281 g and 266 g and 275 g, the “Body Weight” value ([2]; individual animals 1-8, Day 7) was 290 g and 285 g and 303 g and 280 g and 260 g and 299 g and 274 g and the “Body Weight” value ([2]; individual animals 1-8, Day 8) was 295 g and 284 g and 304 g and 279 g and 262 g and 303 g and 275 g. The “Body Weight” value ([2]; individual animals 1-8, Day 9) was 305 g and 284 g (2×) and 310 g and 279 g and 304 g and 275 g, the “Body Weight” value ([2]; individual animals 1-8, Day 10) was 300 g and 284 g and 311 g and 277 g and 270 g and 304 g and the “Body Weight” value ([2]; individual animals 1-8, Day 11) was 298 g and 297 g and 311 g and 278 g and 271 g and 315 g. The “Body Weight” value ([2]; individual animals 1-8, Day 12) was 295 g and 291 g and 319 g and 283 g and 271 g and 315 g, the “Body Weight” value ([2]; individual animals 1-8, Day 13) was 294 g and 293 g and 318 g and 286 g and 270 g and 320 g and the “Body Weight” value ([2]; individual animals 1-8, Day 14) was 298 g and 296 g and 322 g and 291 g and 281 g and 331 g. The “Body Weight” value ([2]; individual animals 1-8, Day −1) was 284 g and 304 g and 299 g and 289 g and 297 g and 301 g, the “Mean + SD of Body Weight” value ([2]; Day 0) was 302 ± 6 g and the “Mean + SD of Body Weight” value ([2]; Day 1) was 288 ± 11 g. For the same compound, the “Mean + SD of Body Weight” value ([2]; Day 2) was 285 ± 8 g, the “Mean + SD of Body Weight” value ([2]; Day 3) was 284 ± 9 g and the “Mean + SD of Body Weight” value ([2]; Day 4) was 283 ± 11 g. The “Mean + SD of Body Weight” value ([2]; Day 5) was 281 ± 11 g, the “Mean + SD of Body Weight” value ([2]; Day 6) was 282 ± 10 g and the “Mean + SD of Body Weight” value ([2]; Day 7) was 284 ± 14 g. For the same compound, the “Mean + SD of Body Weight” value ([2]; Day 8) was 285 ± 15 g, the “Mean + SD of Body Weight” value ([2]; Day 9) was 291 ± 13 g and the “Mean + SD of Body Weight” value ([2]; Day 10) was 289 ± 14 g. The “Mean + SD of Body Weight” value ([2]; Day 11) was 292 ± 17 g, the “Mean + SD of Body Weight” value ([2]; Day 12) was 294 ± 17 g and the “Mean + SD of Body Weight” value ([2]; Day 13) was 296 ± 17 g. For the same compound, the “Mean + SD of Body Weight” value ([2]; Day 14) was 300 ± 18 g, the “Mean + SD of Body Weight” value ([2]; Day −1) was 294 ± 7 g and the Body weight course ([2]; 10 mg/kg daily, 14-day study) was “slight weight loss over the course of the 14-day study before regaining their original weight”.
